Among the data in US10160726B2, “Quinolone derivatives as antibacterials” (priority 2014, dated 2018) are MIC values, retold here.

In brackets after ≈: the same amount, converted by molar mass. Counter-ions that a name gives are not always drawn. Like-named read-outs stand apart in the source and are kept apart here.

Holding throughout (format): cell-based
Experiment [1] has as its system P. aeruginosa NB52019 (wild-type PAO1). Description: MIC, broth microdilution (CLSI). The following applies: Pseudomonas aeruginosa, read-out: Antibacterial activity (MIC) NB52019.
Experiment [2] deals with S. aureus NB01006-AVR005 (gyrA S84L, grlA S80F, grlB E471K). Description: microbe, parasite or virus in culture. To be noted: Staphylococcus aureus, 20 h, read-out: Antibacterial activity (MIC) NB01006-AVR005.
Experiment [3] concerns E. coli ATCC 25922 (NB27001). The experiment in a line: MIC, broth microdilution (CLSI). To be noted: Escherichia coli, ATCC25922; E. coli ATCC 25922; 35° C., 20 hours; read-out: Antibacterial activity (MIC) NB27001. In general terms: Broth dilution looks for growth in wells or tubes with falling amounts of substance.
In experiment [4] the test system is S. aureus ATCC 29213 (NB01001). Description: MIC, broth microdilution (CLSI). To be noted: Staphylococcus aureus, ATCC29213; S. aureus ATCC 29213; 35° C., 20 hours; read-out: Antibacterial activity (MIC) NB01001.
Experiment [5] concerns E. coli NB27177 (efflux deficient CGSC 11430, ΔtolC732::kan). The experiment in a line: microbe, parasite or virus in culture. The following applies: Escherichia coli, 20 h, read-out: Antibacterial activity (MIC) NB27177.
Experiment [6] relates to P. aeruginosa NB52023 (efflux deficient K1542, ΔmexX ΔmexB). Description: microbe, parasite or virus in culture. To be noted: Pseudomonas aeruginosa, 20 h, read-out: Antibacterial activity (MIC) NB52023.
Experiment [7] relates to P. aeruginosa NB52023-CDK0006 (gyrA T83I, parC S87L). Description: microbe, parasite or virus in culture. The following applies: Pseudomonas aeruginosa, 20 h, read-out: Antibacterial activity (MIC) NB52023-CDK0006.
[8] abbreviates: P. aeruginosa wild-type PAO1, 35° C., 20 hours.

As for `Cc1c(N2CC[C@@H]([C@H](C)N)C2)ccc2c(O)cc(=O)n(C3CC3)c12` [Example 72, 7-((R)-3-((S)-1-aminoethyl)pyrrolidin-1-yl)-1-cyclopropyl-4-hydroxy-8-methylquinolin-2(1H)-one TFA salt], the MIC in experiment [1] (PAO1, 20 h) is 32 µg/mL; in experiment [2], 8 µg/mL; in experiment [3], 32 µg/mL; in experiment [4], 16 µg/mL; in experiment [5], 16 µg/mL; in experiment [6] it was above 32 µg/mL. Besides, in experiment [7], the MIC was above 32 µg/mL.

With `Cc1c(N2CC[C@@H]([C@H](C)N)C2)c(F)cc2c(OCCCC(=O)NO)cc(=O)n(C3CC3)c12` [Example 60, 4-((7-((R)-3-((S)-1-aminoethyl)pyrrolidin-1-yl)-1-cyclopropyl-6-fluoro-8-methyl-2-oxo-1,2-dihydroquinolin-4-yl)oxy)-N-hydroxybutanamide], the MIC is above 32 µg/mL in experiment [1] (PAO1, 20 h); 4 µg/mL (≈ 8.96 µM) in experiment [2]; 32 µg/mL (≈ 71.7 µM) in experiment [3]; 8 µg/mL (≈ 17.9 µM) in experiment [4]; 1 µg/mL (≈ 2.24 µM) in experiment [5]; above 32 µg/mL in experiment [6]. In addition, the MIC in experiment [7] was above 32 µg/mL.

As for `CC(=O)N[C@@H](C)[C@@H]1CCN(c2c(F)cc3c(OCCN(C)C)cc(=O)n(C4CC4)c3c2C)C1` [Example 50, N—((S)-1-((R)-1-(1-cyclopropyl-4-(2-(dimethylamino)ethoxy)-6-fluoro-8-methyl-2-oxo-1,2-dihydroquinolin-7-yl)pyrrolidin-3-yl)ethyl)acetamide], the MIC in experiment [1] (PAO1, 20 h) was above 32 µg/mL; in experiment [2] it was 2 µg/mL (≈ 4.36 µM); in experiment [3], 32 µg/mL (≈ 69.8 µM); in experiment [4], 1 µg/mL (≈ 2.18 µM); in experiment [5], 0.125 µg/mL (≈ 0.273 µM); in experiment [6] it was above 32 µg/mL. For the same compound, in experiment [7], the MIC was above 32 µg/mL.

Consider `Cc1c(N2CCC(CN)C2)c(F)c(CN)c2ccc(=O)n(C3CC3)c12.O=C(O)C(F)(F)F` (stereo not shown) [Example 100, 5-(aminomethyl)-7-(3-(aminomethyl)pyrrolidin-1-yl)-1-cyclopropyl-6-fluoro-8-methylquinolin-2(1H)-one TFA salt], for which the MIC in experiment [1] (setting [8]) is above 32 µg/mL; in experiment [2] it was 4 µg/mL; in experiment [3] it was 32 µg/mL; in experiment [4], 8 µg/mL; in experiment [5], 2 µg/mL; in experiment [6] it was 8 µg/mL. Moreover, the MIC in experiment [7] was 16 µg/mL.

Regarding `Cc1c(N2CC[C@@H]([C@H](C)N)C2)c(F)cc2c(Cl)cc(=O)n(C3CC3)c12` [Example 44, 7-((R)-3-((S)-1-aminoethyl)pyrrolidin-1-yl)-4-chloro-1-cyclopropyl-6-fluoro-8-methylquinolin-2(1H)-one], the MIC in experiment [1] (PAO1, 20 h) was found to be 8 µg/mL (≈ 22 µM); in experiment [2] it was 0.03 µg/mL (≈ 0.0824 µM); in experiment [3], 2 µg/mL (≈ 5.5 µM); in experiment [4] it was 0.06 µg/mL (≈ 0.165 µM); in experiment [5] it was 0.03 µg/mL (≈ 0.0824 µM); in experiment [6], 4 µg/mL (≈ 11 µM). In addition, the MIC in experiment [7] came out at 8 µg/mL (≈ 22 µM).

For `Cc1c(N2CC[C@@H]([C@H](C)N)C2)c(F)c(F)c2ccc(=O)n(C3CC3)c12.O=C(O)C(F)(F)F` [Example 106, 7-((R)-3-((S)-1-aminoethyl)pyrrolidin-1-yl)-1-cyclopropyl-5,6-difluoro-8-methyl quinolin-2(1H)-one TFA], the MIC in experiment [1] (setting [8]) was 2 µg/mL; in experiment [2], 0.015 µg/mL; in experiment [3], 0.125 µg/mL; in experiment [4], 0.015 µg/mL; in experiment [5], below 0.03 µg/mL; in experiment [6], 0.5 µg/mL. For the same compound, the MIC in experiment [7] stood at 1 µg/mL.

Consider `Cc1c(N2CC[C@@H]([C@H](C)N)C2)c(F)cc2c(-c3cc(F)c(O)c(F)c3)cc(=O)n(C3CC3)c12` [Example 20, 7-((R)-3-((S)-1-aminoethyl)pyrrolidin-1-yl)-1-cyclopropyl-4-(3,5-difluoro-4-hydroxyphenyl)-6-fluoro-8-methylquinolin-2(1H)-one], for which the MIC in experiment [1] (PAO1, 20 h) was above 32 µg/mL; in experiment [2], 0.25 µg/mL (≈ 0.546 µM); in experiment [3], 32 µg/mL (≈ 69.9 µM); in experiment [4] it was 0.5 µg/mL (≈ 1.09 µM); in experiment [5], 0.125 µg/mL (≈ 0.273 µM); in experiment [6] it was 32 µg/mL (≈ 69.9 µM). The MIC in experiment [7] came out at 16 µg/mL (≈ 35 µM).

Consider `Cl.NCc1c(N2CCC(F)(CN)C2)c(F)cc2ccc(=O)n(C3CC3)c12` (stereo not shown) [Example 111, 8-(aminomethyl)-7-(3-(aminomethyl)-3-fluoropyrrolidin-1-yl)-1-cyclopropyl-6-fluoroquinolin-2(1H)-one HCl salt], for which the MIC in experiment [1] (setting [8]) was above 32 µg/mL; in experiment [2] it was 8 µg/mL; in experiment [3], 8 µg/mL; in experiment [4], 8 µg/mL; in experiment [5], 2 µg/mL; in experiment [6], 8 µg/mL. Moreover, the MIC in experiment [7] came to 16 µg/mL.

As to `Cc1c(N2CC[C@@H]([C@H](C)N)C2)c(F)cc2c(OCCCC(=O)O)cc(=O)n(C3CC3)c12` [Example 61, 4-((7-((R)-3-((S)-1-aminoethyl)pyrrolidin-1-yl)-1-cyclopropyl-6-fluoro-8-methyl-2-oxo-1,2-dihydroquinolin-4-yl)oxy)butanoic acid], the MIC was 32 µg/mL (≈ 74.2 µM) in experiment [1] (PAO1, 20 h); above 32 µg/mL in experiment [2]; 32 µg/mL (≈ 74.2 µM) in experiment [3]; above 32 µg/mL in experiment [4]; above 32 µg/mL in experiment [5]; above 32 µg/mL in experiment [6]. In addition, the MIC in experiment [7] is above 32 µg/mL.

Take `COc1cc2cc(F)c(N3CC[C@@H]([C@H](C)N)C3)c(C)c2n(C2CC2)c1=O` [Example 6, 7-((R)-3-((S)-1-aminoethyl)pyrrolidin-1-yl)-1-cyclopropyl-6-fluoro-3-methoxy-8-methylquinolin-2(1H)-one]: the MIC in experiment [1] (PAO1, 20 h) worked out at 32 µg/mL (≈ 89 µM); in experiment [2] it was 0.5 µg/mL (≈ 1.39 µM); in experiment [3], 2 µg/mL (≈ 5.56 µM); in experiment [4], 0.125 µg/mL (≈ 0.348 µM); in experiment [5] it was 0.125 µg/mL (≈ 0.348 µM); in experiment [6], 8 µg/mL (≈ 22.3 µM). Further, the MIC in experiment [7] turned out to be 32 µg/mL (≈ 89 µM).

Consider `Cc1c(N2CCC(CN)C2)c(F)cc2c(CN(C)C)cc(=O)n(C3CC3)c12.O=C(O)C(F)(F)F` (stereo not shown) [Example 89, 7-(3-(aminomethyl)pyrrolidin-1-yl)-1-cyclopropyl-4-((dimethylamino)methyl)-6-fluoro-8-methylquinolin-2(1H)-one TFA salt], for which the MIC in experiment [1] (setting [8]) is above 32 µg/mL; in experiment [2], 4 µg/mL; in experiment [3], 4 µg/mL; in experiment [4], 1 µg/mL; in experiment [5], 0.5 µg/mL; in experiment [6], 16 µg/mL. Moreover, the MIC in experiment [7] is 32 µg/mL.

Take `Cc1c(N2CC[C@@H]([C@H](C)N)C2)c(F)cc2c(/C=C/C(=O)O)cc(=O)n(C3CC3)c12` [Example 22, (E)-3-(7-((R)-3-((S)-1-aminoethyl)pyrrolidin-1-yl)-1-cyclopropyl-6-fluoro-8-methyl-2-oxo-1,2-dihydroquinolin-4-yl)acrylic acid]: the MIC is above 32 µg/mL in experiment [1] (PAO1, 20 h); 8 µg/mL (≈ 20 µM) in experiment [2]; 32 µg/mL (≈ 80.1 µM) in experiment [3]; 8 µg/mL (≈ 20 µM) in experiment [4]; 8 µg/mL (≈ 20 µM) in experiment [5]; above 32 µg/mL in experiment [6]. The MIC in experiment [7] was above 32 µg/mL.

Regarding `Cc1c(N2CC[C@@H]([C@H](C)N)C2)c(F)cc2c(OCCNS(C)(=O)=O)cc(=O)n(C3CC3)c12` [Example 66, N-(2-((7-((R)-3-((S)-1-aminoethyl)pyrrolidin-1-yl)-1-cyclopropyl-6-fluoro-8-methyl-2-oxo-1,2-dihydroquinolin-4-yl)oxy)ethyl)methanesulfonamide], the MIC is above 32 µg/mL in experiment [1] (PAO1, 20 h); 4 µg/mL (≈ 8.57 µM) in experiment [2]; 32 µg/mL (≈ 68.6 µM) in experiment [3]; 4 µg/mL (≈ 8.57 µM) in experiment [4]; 2 µg/mL (≈ 4.29 µM) in experiment [5]; above 32 µg/mL in experiment [6]. In experiment [7], the MIC is above 32 µg/mL.

Turning to `COc1c(N2CCC(CN)C2)c(F)cc2ccc(=O)n(C3CC3)c12.O=C(O)C(F)(F)F` (stereo not shown) [Example 110, 7-(3-(aminomethyl)pyrrolidin-1-yl)-1-cyclopropyl-6-fluoro-8-methoxyquinolin-2(1H)-one TFA salt], the MIC was above 32 µg/mL in experiment [1] (setting [8]); 0.125 µg/mL in experiment [2]; 4 µg/mL in experiment [3]; 0.25 µg/mL in experiment [4]; 16 µg/mL in experiment [6]; 32 µg/mL in experiment [7].

As for `Cc1c(N2CCC(F)(CN)C2)c(F)cc2cc(CO)c(=O)n(C3CC3)c12` (stereo not shown) [Example 96, 7-(3-(aminomethyl)-3-fluoropyrrolidin-1-yl)-1-cyclopropyl-6-fluoro-3-(hydroxymethyl)-8-methylquinolin-2(1H)-one], the MIC in experiment [1] (PAO1, 20 h) is 32 µg/mL (≈ 88.1 µM); in experiment [2], 1 µg/mL (≈ 2.75 µM); in experiment [3], 2 µg/mL (≈ 5.5 µM); in experiment [4], 0.5 µg/mL (≈ 1.38 µM); in experiment [6], 8 µg/mL (≈ 22 µM); in experiment [7] it was 8 µg/mL (≈ 22 µM).

In the case of `Cc1c(N2CC[C@H](O)C2)c(F)c(F)c2c(CN3CCN(C)CC3)cc(=O)n(C3CC3)c12` [Example 90, (S)-1-cyclopropyl-5,6-difluoro-7-(3-hydroxypyrrolidin-1-yl)-8-methyl-4-((4-methylpiperazin-1-yl)methyl)quinolin-2(1H)-one trifluoro acetic acid], the MIC in experiment [1] (PAO1, 20 h) is above 32 µg/mL; in experiment [2], 0.125 µg/mL (≈ 0.289 µM); in experiment [3], 16 µg/mL (≈ 37 µM); in experiment [4], 0.125 µg/mL (≈ 0.289 µM); in experiment [6], 32 µg/mL (≈ 74 µM); in experiment [7], 32 µg/mL (≈ 74 µM).
